{
  "source": "paper PMC3005334",
  "about": "(Cell, 2010)",
  "key": {"Ypk1": {"biological_target": "T1, Ypk1 (Saccharomyces cerevisiae, UniProt P12688)", "T1 sequence (P12688 1-680)": "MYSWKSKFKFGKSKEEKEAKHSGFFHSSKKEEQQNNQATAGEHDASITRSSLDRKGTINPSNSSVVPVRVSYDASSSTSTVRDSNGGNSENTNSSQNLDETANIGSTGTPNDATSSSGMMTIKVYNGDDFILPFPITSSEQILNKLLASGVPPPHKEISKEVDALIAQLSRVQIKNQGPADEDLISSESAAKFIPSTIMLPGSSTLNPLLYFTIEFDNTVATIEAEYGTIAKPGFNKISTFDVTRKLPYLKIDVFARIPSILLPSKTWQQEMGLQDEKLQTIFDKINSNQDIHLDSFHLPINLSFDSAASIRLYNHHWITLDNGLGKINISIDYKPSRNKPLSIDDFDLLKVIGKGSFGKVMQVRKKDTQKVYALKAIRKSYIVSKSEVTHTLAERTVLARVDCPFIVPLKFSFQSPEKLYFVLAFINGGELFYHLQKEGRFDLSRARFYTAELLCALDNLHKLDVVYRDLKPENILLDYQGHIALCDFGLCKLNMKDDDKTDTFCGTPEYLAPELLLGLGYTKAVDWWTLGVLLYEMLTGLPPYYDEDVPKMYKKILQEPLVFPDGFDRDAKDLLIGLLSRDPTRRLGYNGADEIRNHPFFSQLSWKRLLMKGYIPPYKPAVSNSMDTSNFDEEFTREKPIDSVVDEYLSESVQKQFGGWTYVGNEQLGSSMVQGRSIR", "experiment": "Affinity purification of tagged protein kinase and LC-MS of bound metabolites", "format": "binding", "settings": "identified against pure standards"}, "Ssk22": {"biological_target": "T2, Ssk22 (Saccharomyces cerevisiae, UniProt P25390)", "T2 sequence (P25390 1-1331)": "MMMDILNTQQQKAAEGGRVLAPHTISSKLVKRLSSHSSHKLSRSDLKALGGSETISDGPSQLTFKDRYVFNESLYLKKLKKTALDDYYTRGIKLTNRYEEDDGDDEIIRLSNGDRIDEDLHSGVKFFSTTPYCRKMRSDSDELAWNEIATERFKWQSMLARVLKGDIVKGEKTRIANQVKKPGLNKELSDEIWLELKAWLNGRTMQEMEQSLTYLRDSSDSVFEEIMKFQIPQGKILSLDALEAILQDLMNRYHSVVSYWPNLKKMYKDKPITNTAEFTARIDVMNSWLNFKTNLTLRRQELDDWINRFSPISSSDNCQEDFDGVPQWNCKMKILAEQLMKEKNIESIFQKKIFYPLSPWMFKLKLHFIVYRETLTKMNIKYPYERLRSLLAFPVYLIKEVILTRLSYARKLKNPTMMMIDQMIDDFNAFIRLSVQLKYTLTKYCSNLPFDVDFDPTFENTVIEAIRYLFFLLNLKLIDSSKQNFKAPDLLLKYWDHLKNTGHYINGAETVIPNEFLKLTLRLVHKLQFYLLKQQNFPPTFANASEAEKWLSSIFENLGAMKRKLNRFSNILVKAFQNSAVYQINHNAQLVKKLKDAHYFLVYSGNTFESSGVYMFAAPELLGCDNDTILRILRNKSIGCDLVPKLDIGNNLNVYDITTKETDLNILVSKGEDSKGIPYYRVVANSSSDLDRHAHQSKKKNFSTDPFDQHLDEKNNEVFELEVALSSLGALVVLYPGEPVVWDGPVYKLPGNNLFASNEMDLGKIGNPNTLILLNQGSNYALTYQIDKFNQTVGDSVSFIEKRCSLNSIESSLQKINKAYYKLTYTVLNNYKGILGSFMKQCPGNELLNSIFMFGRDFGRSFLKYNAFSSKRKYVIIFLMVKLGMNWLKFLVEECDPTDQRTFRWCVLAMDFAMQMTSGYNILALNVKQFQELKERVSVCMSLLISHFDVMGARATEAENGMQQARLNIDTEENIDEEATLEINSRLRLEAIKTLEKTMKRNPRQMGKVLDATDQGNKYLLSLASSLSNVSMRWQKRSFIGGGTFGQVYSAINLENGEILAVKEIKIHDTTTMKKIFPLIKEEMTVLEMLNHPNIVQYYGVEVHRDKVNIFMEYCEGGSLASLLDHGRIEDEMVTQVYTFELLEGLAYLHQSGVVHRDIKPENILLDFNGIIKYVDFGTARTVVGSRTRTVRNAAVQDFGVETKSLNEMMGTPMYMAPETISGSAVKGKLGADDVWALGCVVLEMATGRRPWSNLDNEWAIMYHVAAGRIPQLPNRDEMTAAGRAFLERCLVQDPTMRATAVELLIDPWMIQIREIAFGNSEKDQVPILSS", "experiment": "Ssk22 protein levels purified from erg4Δ cells with exogenous ergosterol", "format": "cell-based", "settings": "erg4Δ mutant strain, exogenous ergosterol added to the medium"}},
  "data": [
    {"molecule": "CC(C)[C@@H](C)/C=C/[C@@H](C)[C@H]1CC[C@H]2C3=CC=C4C[C@@H](O)CC[C@]4(C)[C@H]3CC[C@]12C", "note": "[ergosterol]", "values": [
      {"measurement": "metabolite extracted from Ypk1", "setting": "Ypk1", "value": "bound metabolite"},
      {"measurement": "Ssk22 protein levels", "setting": "Ssk22", "value": "restored Ssk22 levels"}
    ]}
  ]
}
